Measurements: article PMC5700161, “Structure of human immunoproteasome with a reversible and noncompetitive inhibitor that selectively inhibits activated lymphocytes” (Nature Communications, 2017)

How the values were obtained:
MM.1S cells = experiment: Cytotoxicity, CellTiter-glo, MM.1S; assay type: cell-based; conditions: 72 h
Experimental: (§1) Fig. 4 Intracellular proteasome inhibition by PKS21221 and its cytotoxicity against transformed cell lines. a Karpas 1106P lymphoma cells (white and black symbols) or HepG2 cells (blue symbols) were treated with PKS21221 for 2 h at the concentrations indicated prior to incubation with substrate (Ac-ANW)2R110 for β5i (Karpas cells) or suc-LLVY-luciferin for β5 (Karpas cells and HepG2 cells). […] Cell viability was determined by CellTiter-glo. Data are means ± SEM of three to four independent experiments
(§2) We incubated MM.1S, RPMI 8226, Karpas and HepG2 cells with PKS21221 at different concentrations, and determined cell viability after 72 h (Fig. 4b).
(§3) We used Karpas 1106P B lymphoma cell line (Cat. No. 06072607, Aldrich)[15],[16],[52], HepG2 (HB-8065, ATCC), MM.1S (Cat. No. CRL-2974, ATCC). Cells were cultured at 37 °C in a humidified air/5% CO2 atmosphere in medium supplemented with 10% fetal bovine serum, except for the medium for Karpas 1106P cells which contained 20% fetal bovine serum, and 100 units per ml penicillin, 100 μg per ml streptomycin in RPMI 1640 medium. Karpas 1106P was used at 80,000 cells per well, MM.1S at 100,000 cells per well, and HepG2 at 12,000 cells per well. […] Viable cells were counted using Cell-titer Glo assay kit. EC50s were calculated using PRISM (Graphpad).

proliferating T cells = experiment: Apoptosis and viability of proliferating vs non-proliferating T cells; assay type: cell-based, human; conditions: 4 days anti-CD3/anti-CD28, then 24 h; PKS21221 1 µM, BTZ 10 nM
Source text: As we observed selective cytotoxicity of PKS21221 in activated B cells and ASCs compared to non-activated B cells, we asked whether this is the case in proliferating T cells. We activated human T cells to proliferate with anti-CD3 and anti-CD28 in the presence or absence of PKS21221 or bortezomib. […] To examine whether these inhibitors are cytotoxic preferentially to proliferating cells, we triggered T-cell proliferation with anti-CD3/anti-CD28 for 4 days (in the absence of inhibitors), treated the cells with PKS21221 for the next 24 h and determined cell survival with Annexin V and 7-AAD (Fig. 6c, d).
Fig. 6 Effect of PKS21221 and bortezomib (BTZ) on T-cell proliferation. T cells were isolated from human PBMC and stimulated with anti-CD3 (1 µg per ml) and anti-CD28 (1 µg per ml) for 4 days. […] Apoptosis c and viability d were assessed in proliferating and non-proliferating population of T cells. […]
T cells were isolated from human PBMCs using Human T-cell Isolation kit (StemCell Technologies, Cat#17951). […] Cells were counted and loaded with 5 μM CellTrace Violet (Thermo Fisher) in phosphate buffered saline (PBS) for 10 min at 37 °C, followed by wash in 10% fetal calf serum (FCS)-supplemented RPMI 1640 media. […] The viability and apoptosis were assessed using Annexin V Apoptosis Detection Kit (BD Biosciences). […]

[1] = tested on: β5(i+c) in Karpas 1106P cells; experiment: Intracellular β5(i+c) activity in Karpas 1106P cells, suc-LLVY-luciferin; assay type: cell-based
Experimental: To determine if this class of inhibitors is cell penetrable, we treated the B-cell lymphoma line Karpas 1106P[28] (expressing a high proportion of i-20S over c-20S) with PKS21221 before incubation with either (Ac-ANW)2-R110 (a specific substrate of β5i) or suc-LLVY-luciferin (a substrate of β5) (Fig. 4a).
as §1

luciferase = experiment: Luciferase counter-test; assay type: biochemical; conditions: at 100 µM, tested over 0.002–100 µM
HepG2 cells = experiment: Cytotoxicity, CellTiter-glo, HepG2; conditions: read-out: EC50 HepG2, 72 h
Experimental: as §1, §2, §3

## Cc1ccc(S(=O)(=O)N[C@@H](CC(=O)NC(C)(C)C)C(=O)NCCNC(=O)c2cc(-c3ccccc3F)ccc2F)cc1 [PKS21221]
MM.1S cells
  EC50: 78 ± 30 nM
Proliferating T cells
  apoptosis and cell death, proliferating vs non-proliferating T cells: induced apoptosis and cell death to a greater extent in proliferating T cells than in non-proliferating T cells
[1]
  IC50: 118 ± 33 nM
luciferase
  inhibition of luciferase activity: does not inhibit
HepG2 cells
  EC50: 2320 ± 630 nM
